Data on eleven compounds can be found in patent US11046679B2, “Indoleamine 2,3-dioxygenase inhibitor and application” (Nanjing TransThera Biosciences Co. Ltd., priority 2017, dated 2021).

In series [1] the target is T1, IDO1 (Homo sapiens, UniProt P14902).
T1 construct: purchased CP lot number: 20160706
The series is described as follows: IDO1 enzymology evaluation method. It counts as biochemical. The settings on record: IDO-1 enzyme, dynamic OD at 321 nm, IC50 fitted with GraphPad Prism. The procedure: IDO1 Enzymology Evaluation Method
(§1) Test Sample: Compounds Prepared in the Corresponding Examples of the Present Invention
Preparation of compound: The compound was formulated into 1 mM compound mother liquor in DMSO, and the compound was diluted 3-fold in DMSO to obtain a compound concentration dilution mother solution (100×) of 9 concentration gradients.
Dosing inhibition: 2 μL of 100× compound dilution mother solution was added to a 96-well plate, added with 100 μL of enzyme solution (IDO-1), and incubated for 10 min at room temperature. 100% DMSO was used as a negative control and NLG-919 was used as a positive control. Incubation was performed with 100 μL of substrate mixture (L-tryptophan, ascorbate, methylene blue, and catalase).
Detection: Dynamic OD data at 321 nm was detected using Spectramax.
Calculation: The inhibition rate was calculated according to the following formula.
The curve slope was fitted using the Spectramax program, and IC50 was fitted using GraphPad Prism 5.0.

The subject of series [2] is Hela cell. The series is described as follows: Hela cell evaluation method (cytological test, rhIFN-γ stimulated). The format is cell-based. The conditions noted are these: Hela cells with 50 ng/mL rhIFN-γ, incubated 48 hours, OD at 480 nm. As to the method: Hela Cell Evaluation Method
as §1
Helacell strain (Purchased from ATCC, Cat. No. CCL-2, 4965442)
Recombinant Human IFN-γ (rhIFN-γ, Purchased from Peprotech, Cat. No. 300-02)
Cell plating: Hela cell suspension was prepared from fresh MEM cell culture medium, added to a 96-well cell culture plate at 5000 cells/well, and cultured at 5% carbon dioxide at 37° C. overnight.
Preparation of compound: The compound was formulated into 2 mM in DMSO, and the compound was diluted 5-fold in DMSO to obtain a compound dilution mother solution (200×) of 6 to 9 concentration gradients, and a 10× dilution solution was prepared in proportion with cell culture medium or liquid.
Dosing incubation: After the cells were plated overnight, 10 μL of the corresponding compound dilution mother solution (10×) and 10 μL of 500 ng/mL rhIFN-γ were added to each well, and the final volume of each well was 100 μL. The negative control wells contained 100 μL of 0.5% DMSO cell culture medium and Hela cells. 50 ng/mL of rhIFN-γ were filled into negative control wells, which are used as positive control. Background control wells contained 100 μL of cell culture medium. Incubation was performed for 48 hours in a 37° C. incubator and cell morphology was observed under an inverted microscope.
Detection: 80 μL of the supernatant was added to a Corning 3894 plate, and 10 μL of 6.1 N trichloroacetic acid was added to each well. The plate was shaken for 2 minutes, placed in a 50° C. incubator to react for 30 minutes, centrifuged at 2500 rpm for 10 minutes. 70 μL of the supernatant was transferred to a Corning 3635 UV plate, added with 70 μL of the reaction solution and the mixture was shaken for 2 minutes to make the reaction mixture uniform. The OD value at 480 nm was measured using EnSpire (PE).

Series [3] can be described thus: Rat PK evaluation of the compounds. It counts as in vivo. The conditions noted are these: SD rats; for Cl_obs iv / Vz_obs iv / tz1/2 iv / tZ1/2 PO / bioavailability / AUC(0-inf): n = 3; for tZ1/2 PO: PO (intragastric) 5 mg/kg; for bioavailability / AUC(0-inf) / Tmax: Sprague-Dawley, rat, plasma; for Tmax: n = 3, median. The procedure:
Example 3: Rat PK Evaluation of the Compounds
Animal administration and sample collection: intragastric administration: Compounds 2 and 13 were dissolved in 10% DMA+10% (30% Solutol)+80% physiological saline to prepare a solution. Compound 15 was dissolved in 10% DMA+10% PEG400+80% physiological saline to prepare a solution. The SD rats were intragastrically administered at a dose of 5.0 mg/kg. The time of blood collection was: 15 min, 30 min, 1 h, 2 h, 4 h, 6 h, 8 h and 24 h.
Intravenous administration: Compounds 2 and 13 were dissolved in 10% DMA+10% (30% Solutol)+80% physiological saline to prepare a solution. Compound 15 was dissolved in 10% DMA+10% PEG400+80% physiological saline to prepare a solution. The SD rats were intravenous administered at a dose of 1 mg/kg. The time of blood collection was: 5 min, 15 min, 30 min, 1 h, 2 h, 4 h, 6 h, 8 h and 24 h.
The animals were fixed, the tail was heated in a water bath 10 min before each time point, and about 100 μL of blood was collected through the tail vein, and the blood was then placed in an anti-coagulation tube containing EDTA-K2. Blood samples were centrifuged at 8000 rpm for 6 min at 4° C. to obtain plasma samples, which must be prepared within 30 min of blood collection. The plasma samples were stored at −80° C. in a freezer before test.
Take the sample to be tested from the refrigerator (−80° C.), melted at room temperature and vortexed for 5 min. 20 μL of plasma sample was accurately pipetted into a 1.5 mL centrifuge tube; added with 200 μL of internal standard working solution at a concentration of 50 ng/mL and mixed well. The mixture was vortexed for 5 min (12000 rpm) and centrifuge for 5 min (12000 rpm). 50 μL of supernatant was accurately pipetted into 96-well plates pre-filled with 150 μL/well of water; vortexed for 5 min to mix well. The inject volume was 20 μL and LC-MS/MS was performed.
The concentration of the test sample was output by using Analyst 1.6.3 from AB. The mean, standard deviation, coefficient of variation and other parameters were calculated by Microsoft Excel (direct output from Analyst 1.6.3 is not calculated). PK parameters are calculated by using Pharsight Phoenix 6.1 software NCA (Tmax is the median).

The mark [4] stands for this setting: IV 1 mg/kg, read-out: AUCinf iv.
Setting [5] is: PO 5 mg/kg, read-out: AUCinf PO.

Where two headings read alike, the source gives them in different places.

T1 sequence (P14902 whole entry, species assumed): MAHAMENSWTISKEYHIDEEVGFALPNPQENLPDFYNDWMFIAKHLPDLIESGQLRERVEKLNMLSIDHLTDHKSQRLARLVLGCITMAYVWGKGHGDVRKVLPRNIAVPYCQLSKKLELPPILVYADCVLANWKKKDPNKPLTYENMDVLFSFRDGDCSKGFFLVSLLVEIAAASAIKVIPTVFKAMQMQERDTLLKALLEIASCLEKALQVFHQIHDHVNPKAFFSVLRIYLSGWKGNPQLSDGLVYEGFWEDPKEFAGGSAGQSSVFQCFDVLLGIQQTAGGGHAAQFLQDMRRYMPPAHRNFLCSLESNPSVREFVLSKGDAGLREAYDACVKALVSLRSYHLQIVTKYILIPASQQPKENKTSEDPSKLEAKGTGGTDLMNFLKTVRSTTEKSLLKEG

The IC50 is the point on the concentration scale where inhibition reaches its midpoint. A low value points to greater potency in that assay. Regarding `O=S1(=O)CCC(Nc2nonc2C(=NO)Nc2ccc(F)c(Br)c2)C1` (single isomer, unassigned) [Compound 15-P1], the IC50 in series [1] worked out at 200 nM; in series [2], 19.4 nM.
For the compound `O=S1(=O)CCC(Nc2nonc2C(=NO)Nc2ccc(F)c(Br)c2)C1` (single isomer, unassigned) [Compound 15-P2], the values for the IC50 in series [1] and in series [2] were 240 nM and 119 nM, respectively.
`ON=C(Nc1ccc(F)c(Br)c1)c1nonc1NC1CCOCC1` [Compound 1, N-(3-bromo-4-fluorophenyl)-N′-hydroxy-4-((tetrahydro-2H-pyran-4-yl)amino)-1,2,5-oxadiazol-3-formamidine]: half-maximal inhibition in series [2] (Homo sapiens, HeLa, 48 h) (IC50) required 109 nM.
Usually bioavailability stands for the share of a dose that reaches the circulation, judged against a reference dose that is usually intravenous. A word on the Tmax: it is the time at which the peak concentration occurs. In series [3] (IV 1 mg/kg), `O=S1(=O)CCC(Nc2nonc2C(=NO)Nc2ccc(F)c(Br)c2)CC1` [Compound 2, N-(3-bromo-4-fluorophenyl)-4-((1,1-dioxotetrahydro-2H-thiopyran-4-yl)amino)-N′-hydroxy-1,2,5-oxadiazol-3-formamidine] returned a Cl_obs iv of 32.8 mL/min/kg, a Vz_obs iv of 5.02 L/kg and a tz1/2 iv of 1.82 h. Besides, the “tZ1/2 PO” value in series [3] is 3.81 h. This compound yielded a bioavailability in series [3] (IV 1 mg/kg, PO 5 mg/kg) of 62.2%. Besides, the AUC(0-inf) in series [3] (setting [4]) is 521 ng·h/mL. The Tmax in series [3] (PO 5 mg/kg) stood at 15 min. Further, the AUC(0-inf) in series [3] (setting [5]) came out at 1620 ng·h/mL. Further, it took 39.7 nM to reach half-maximal inhibition in series [2] (Homo sapiens, HeLa, 48 h) (IC50).
`CS(=O)(=O)N1CCC(Nc2nonc2C(=NO)Nc2ccc(F)c(Br)c2)CC1` [Compound 3, N-(3-bromo-4-fluorophenyl)-N′-hydroxy-4-((1-(methylsulfonyl)piperidin-4-yl)amino)-1,2,5-oxadiazol-3-formamidine] showed an IC50 in series [2] (Homo sapiens, HeLa, 48 h) of 71 nM.
On the same count and under the same terms, then `NS(=O)(=O)N1CCC(Nc2nonc2C(=NO)Nc2ccc(F)c(Br)c2)CC1` [Compound 4], with 78.8 nM.
The same measure, in the same setting: the same measure for `ON=C(Nc1ccc(F)c(Br)c1)c1nonc1NC1CC2(COC2)C1` [Compound 12, 4-((2-oxaspiro[3.3]heptan-6-yl)amino)-N-(3-bromo-4-fluorophenyl)-N′-hydroxy-1,2,5-oxadiazol-3-carboxamidine]: 105 nM.
In series [3] (IV 1 mg/kg), `O=S1(=O)CC2(CC(Nc3nonc3C(=NO)Nc3ccc(F)c(Br)c3)C2)C1` [Compound 13, N-(3-bromo-4-fluorophenyl)-4-((2,2-dioxo-2-thiaspiro[3.3]heptan-6-yl)amino)-N′-hydroxy-1,2,5-oxadiazol-3-formamidine] came in with a Cl_obs iv of 53.3 mL/min/kg, a Vz_obs iv of 9.00 L/kg and a tz1/2 iv of 2.00 h. Besides, the “tZ1/2 PO” value in series [3] turned out to be 1.67 h. The same compound had a bioavailability in series [3] (IV 1 mg/kg, PO 5 mg/kg) of 36.9%. Also, the AUC(0-inf) in series [3] (setting [4]) turned out to be 336 ng·h/mL. In addition, the Tmax in series [3] (PO 5 mg/kg) turned out to be 15 min. Besides, the AUC(0-inf) in series [3] (setting [5]) is 620 ng·h/mL. This compound came in with a 50% inhibitory concentration (IC50) in series [1] of 220 nM. For the same compound, in series [2] (Homo sapiens, HeLa, 48 h), the midpoint of inhibition, the IC50, lay at 68.6 nM.
In series [3] (IV 1 mg/kg), `O=S1(=O)CCC(Nc2nonc2C(=NO)Nc2ccc(F)c(Br)c2)C1` (stereo not shown) [Compound 15, N-(3-bromo-4-fluorophenyl)-4-((1,1-dioxo-tetrahydrothiophen-3-yl)amino)-N′-hydroxy-1,2,5-oxadiazol-3-formamidine] came in with a Cl_obs iv of 45.5 mL/min/kg, a Vz_obs iv of 4.03 L/kg and a tz1/2 iv of 1.03 h. Also, the “tZ1/2 PO” value in series [3] is given as 3.40 h. The bioavailability in series [3] (IV 1 mg/kg, PO 5 mg/kg) was determined as 28.1%. The AUC(0-inf) in series [3] (setting [4]) came out at 367 ng·h/mL. The Tmax in series [3] (PO 5 mg/kg) was 60 min. For the same compound, in series [3] (setting [5]), the AUC(0-inf) was determined as 516 ng·h/mL. Further, the IC50 in series [1] worked out at 220 nM. The compound further returned an IC50 in series [2] (Homo sapiens, HeLa, 48 h) of 51.6 nM.
As to `CS(=O)(=O)N1CC2(CC(Nc3nonc3C(=NO)Nc3ccc(F)c(Br)c3)C2)C1` [Compound 16, N-(3-bromo-4-fluorophenyl)-N′-hydroxy-4-((2-(methylsulfonyl)-2-azaspiro[3.3]heptan-6-yl)amino)-1,2,5-oxadiazol-3-formamidine], the 50% inhibitory concentration (IC50) in series [1] was 170 nM; in series [2] (Homo sapiens, HeLa, 48 h), 78.3 nM.
For `O=S1(=O)CC(Nc2nonc2C(=NO)Nc2ccc(F)c(Br)c2)C1` [Compound 26, N-(3-bromo-4-fluorophenyl)-4-((1,1-dioxothietan-3-yl)amino)-N′-hydroxy-1,2,5-oxadiazol-3-formamidine], in series [2] (Homo sapiens, HeLa, 48 h), the IC50 was found to be 76 nM.
